# Experimental data taken from ChEMBL document CHEMBL5465560, “Selectivity Literature for EUbOPEN Chemogenomic Library” (2024).
# Legend:
# [1] = molecular target: Serine/threonine-protein kinase 38-like (Homo sapiens) (UniProt Q9Y2H1); experiment: Selectivity interaction (KinomeScan (DiscoverX)) EUB0000607a STK38L; conditions: at 10 µM
# [2] = molecular target: T1, Muscle, skeletal receptor tyrosine-protein kinase (Homo sapiens) (UniProt O15146); experiment: Selectivity interaction (ProQinase) EUB0000171b MUSK
# T1 sequence (whole entry): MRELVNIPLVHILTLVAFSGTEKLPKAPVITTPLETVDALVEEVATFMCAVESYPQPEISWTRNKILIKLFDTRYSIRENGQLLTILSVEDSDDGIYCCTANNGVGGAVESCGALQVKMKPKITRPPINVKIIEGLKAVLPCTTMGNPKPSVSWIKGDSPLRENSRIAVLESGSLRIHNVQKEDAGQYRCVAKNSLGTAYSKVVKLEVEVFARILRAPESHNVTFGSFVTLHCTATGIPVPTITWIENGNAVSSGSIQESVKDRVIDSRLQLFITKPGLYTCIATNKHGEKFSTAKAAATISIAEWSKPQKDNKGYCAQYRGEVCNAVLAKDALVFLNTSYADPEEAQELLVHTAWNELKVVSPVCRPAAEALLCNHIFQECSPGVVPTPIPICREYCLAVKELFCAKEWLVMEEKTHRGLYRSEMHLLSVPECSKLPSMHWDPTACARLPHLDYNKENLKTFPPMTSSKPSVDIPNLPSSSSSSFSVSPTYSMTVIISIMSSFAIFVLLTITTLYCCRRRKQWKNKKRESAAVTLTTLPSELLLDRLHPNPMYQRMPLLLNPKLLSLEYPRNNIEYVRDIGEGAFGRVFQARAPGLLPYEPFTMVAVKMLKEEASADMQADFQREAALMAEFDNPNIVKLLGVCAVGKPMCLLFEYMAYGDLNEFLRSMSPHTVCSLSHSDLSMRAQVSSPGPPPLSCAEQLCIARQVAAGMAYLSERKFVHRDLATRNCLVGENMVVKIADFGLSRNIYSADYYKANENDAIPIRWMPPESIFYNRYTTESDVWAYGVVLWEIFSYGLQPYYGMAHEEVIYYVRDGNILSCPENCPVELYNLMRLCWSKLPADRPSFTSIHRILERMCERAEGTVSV
# [3] = molecular target: Cyclin-dependent kinase 8 (Homo sapiens, UniProt P49336); conditions: at 10 µM
# Sequence of Cyclin-dependent kinase 8 (P49336 whole entry): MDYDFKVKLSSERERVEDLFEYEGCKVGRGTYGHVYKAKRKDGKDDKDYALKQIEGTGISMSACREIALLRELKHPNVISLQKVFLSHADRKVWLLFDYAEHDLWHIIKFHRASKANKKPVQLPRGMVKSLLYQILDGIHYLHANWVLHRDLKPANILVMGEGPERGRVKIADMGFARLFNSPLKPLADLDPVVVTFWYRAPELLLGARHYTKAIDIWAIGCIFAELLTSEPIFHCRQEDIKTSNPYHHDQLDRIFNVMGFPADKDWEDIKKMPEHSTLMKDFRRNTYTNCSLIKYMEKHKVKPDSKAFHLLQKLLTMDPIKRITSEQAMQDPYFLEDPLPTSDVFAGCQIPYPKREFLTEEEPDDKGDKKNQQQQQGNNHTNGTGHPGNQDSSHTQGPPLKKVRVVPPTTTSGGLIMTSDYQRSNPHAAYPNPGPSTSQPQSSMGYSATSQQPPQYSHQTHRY
# Ephrin type-A receptor 4 = Ephrin type-A receptor 4 (Homo sapiens, UniProt P54764); conditions: at 10 µM
# Sequence of Ephrin type-A receptor 4 (P54764 whole entry): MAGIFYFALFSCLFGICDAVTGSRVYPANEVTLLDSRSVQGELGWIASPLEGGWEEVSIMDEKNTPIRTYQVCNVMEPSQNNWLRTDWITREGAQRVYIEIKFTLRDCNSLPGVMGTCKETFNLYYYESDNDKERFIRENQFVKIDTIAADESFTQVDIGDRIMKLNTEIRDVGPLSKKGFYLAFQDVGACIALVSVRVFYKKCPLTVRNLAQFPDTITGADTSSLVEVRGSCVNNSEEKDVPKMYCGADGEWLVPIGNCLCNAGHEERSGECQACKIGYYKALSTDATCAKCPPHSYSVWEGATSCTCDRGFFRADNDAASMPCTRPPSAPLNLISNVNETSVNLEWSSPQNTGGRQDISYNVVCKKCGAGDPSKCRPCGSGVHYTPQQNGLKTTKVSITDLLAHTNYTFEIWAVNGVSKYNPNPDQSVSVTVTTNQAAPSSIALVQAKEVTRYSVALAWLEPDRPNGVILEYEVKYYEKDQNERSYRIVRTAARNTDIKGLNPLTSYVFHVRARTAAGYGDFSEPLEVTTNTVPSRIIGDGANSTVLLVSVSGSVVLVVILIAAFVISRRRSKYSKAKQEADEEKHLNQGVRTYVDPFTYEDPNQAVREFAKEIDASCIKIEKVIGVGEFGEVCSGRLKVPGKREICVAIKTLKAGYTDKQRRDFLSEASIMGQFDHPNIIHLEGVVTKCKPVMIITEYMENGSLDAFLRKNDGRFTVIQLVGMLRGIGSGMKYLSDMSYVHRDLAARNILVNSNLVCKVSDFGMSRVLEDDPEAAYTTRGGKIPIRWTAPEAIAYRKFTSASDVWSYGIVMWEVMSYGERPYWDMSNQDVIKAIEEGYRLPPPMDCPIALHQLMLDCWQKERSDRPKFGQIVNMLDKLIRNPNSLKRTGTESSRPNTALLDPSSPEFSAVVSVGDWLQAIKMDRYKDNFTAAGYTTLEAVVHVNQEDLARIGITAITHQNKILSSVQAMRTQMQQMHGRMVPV
# [4] = molecular target: T2, Phosphatidylinositol 5-phosphate 4-kinase type-2 gamma (Homo sapiens) (UniProt Q8TBX8); experiment: Selectivity interaction (KinomeScan (DiscoverX)) EUB0000045b PIP4K2C
# T2 sequence (whole entry): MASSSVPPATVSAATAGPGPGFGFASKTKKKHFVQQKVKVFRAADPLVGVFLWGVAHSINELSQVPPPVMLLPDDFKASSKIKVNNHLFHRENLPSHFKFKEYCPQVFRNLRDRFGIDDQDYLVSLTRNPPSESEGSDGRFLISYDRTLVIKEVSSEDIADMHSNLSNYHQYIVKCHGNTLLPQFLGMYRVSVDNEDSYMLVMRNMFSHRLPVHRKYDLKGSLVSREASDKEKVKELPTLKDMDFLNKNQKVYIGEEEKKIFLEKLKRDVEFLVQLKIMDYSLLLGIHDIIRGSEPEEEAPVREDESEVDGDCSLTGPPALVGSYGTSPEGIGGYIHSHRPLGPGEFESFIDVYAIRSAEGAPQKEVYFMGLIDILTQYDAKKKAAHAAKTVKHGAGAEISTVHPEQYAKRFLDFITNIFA
# [5] = molecular target: Serine/threonine-protein kinase 32B (Homo sapiens) (UniProt Q9NY57); experiment: Selectivity interaction (KinomeScan (DiscoverX)) EUB0000229b STK32B; conditions: at 10 µM
# Sequence of Serine/threonine-protein kinase 32B (Homo sapiens) (Q9NY57 whole entry): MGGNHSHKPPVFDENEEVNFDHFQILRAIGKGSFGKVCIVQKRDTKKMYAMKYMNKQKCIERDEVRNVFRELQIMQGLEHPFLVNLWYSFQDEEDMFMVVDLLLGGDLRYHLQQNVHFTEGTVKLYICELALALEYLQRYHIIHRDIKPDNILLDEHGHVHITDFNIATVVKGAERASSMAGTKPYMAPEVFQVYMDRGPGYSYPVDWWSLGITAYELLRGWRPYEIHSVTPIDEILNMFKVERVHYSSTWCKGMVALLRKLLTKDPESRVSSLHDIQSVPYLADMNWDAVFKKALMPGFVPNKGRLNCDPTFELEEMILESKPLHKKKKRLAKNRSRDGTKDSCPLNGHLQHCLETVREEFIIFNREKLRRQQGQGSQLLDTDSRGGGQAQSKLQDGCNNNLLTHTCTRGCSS
# [6] = molecular target: T3, Myosin-IIIb (Homo sapiens) (UniProt Q8WXR4); experiment: Selectivity interaction (KinomeScan (DiscoverX)) EUB0000618a MYO3B; conditions: at 10 µM
# T3 sequence (whole entry): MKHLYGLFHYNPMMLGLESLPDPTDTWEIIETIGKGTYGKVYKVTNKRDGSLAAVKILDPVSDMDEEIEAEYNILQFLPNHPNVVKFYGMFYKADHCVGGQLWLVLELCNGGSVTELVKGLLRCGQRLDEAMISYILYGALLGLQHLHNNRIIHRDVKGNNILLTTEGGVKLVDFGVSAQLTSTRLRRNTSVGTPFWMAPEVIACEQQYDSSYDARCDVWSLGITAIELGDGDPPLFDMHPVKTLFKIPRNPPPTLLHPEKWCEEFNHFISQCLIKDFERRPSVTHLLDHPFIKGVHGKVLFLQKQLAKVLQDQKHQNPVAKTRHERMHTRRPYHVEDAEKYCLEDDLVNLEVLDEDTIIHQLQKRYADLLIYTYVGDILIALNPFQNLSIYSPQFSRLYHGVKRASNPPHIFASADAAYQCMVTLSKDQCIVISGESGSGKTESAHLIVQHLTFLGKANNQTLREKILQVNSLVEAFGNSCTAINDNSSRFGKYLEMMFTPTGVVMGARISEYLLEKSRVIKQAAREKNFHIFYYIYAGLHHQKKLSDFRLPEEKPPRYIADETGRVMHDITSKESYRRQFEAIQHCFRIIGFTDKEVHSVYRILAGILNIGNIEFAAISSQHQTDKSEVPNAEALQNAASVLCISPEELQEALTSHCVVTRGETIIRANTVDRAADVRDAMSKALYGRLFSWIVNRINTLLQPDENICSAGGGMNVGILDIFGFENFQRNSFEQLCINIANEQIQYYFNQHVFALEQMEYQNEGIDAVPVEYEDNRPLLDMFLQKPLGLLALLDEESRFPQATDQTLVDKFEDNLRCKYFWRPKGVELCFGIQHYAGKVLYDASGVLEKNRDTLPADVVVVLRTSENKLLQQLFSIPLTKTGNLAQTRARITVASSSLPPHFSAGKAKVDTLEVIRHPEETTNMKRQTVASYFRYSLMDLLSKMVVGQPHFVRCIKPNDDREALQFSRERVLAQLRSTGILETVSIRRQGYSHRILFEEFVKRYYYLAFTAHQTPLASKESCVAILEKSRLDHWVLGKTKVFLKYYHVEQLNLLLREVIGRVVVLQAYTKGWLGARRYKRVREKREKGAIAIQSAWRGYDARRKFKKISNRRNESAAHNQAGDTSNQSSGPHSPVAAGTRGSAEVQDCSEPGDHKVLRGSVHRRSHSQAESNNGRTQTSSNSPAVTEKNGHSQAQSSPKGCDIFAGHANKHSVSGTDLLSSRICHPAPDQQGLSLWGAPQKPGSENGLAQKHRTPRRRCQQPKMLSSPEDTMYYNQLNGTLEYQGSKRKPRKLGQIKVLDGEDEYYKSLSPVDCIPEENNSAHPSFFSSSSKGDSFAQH
# Activated CDC42 kinase 1 = Activated CDC42 kinase 1 (Homo sapiens, UniProt Q07912); experiment: Selectivity interaction (KinomeScan (DiscoverX)) EUB0001619a TNK2; conditions: at 1 µM
# Sequence of Activated CDC42 kinase 1 (Q07912 whole entry, looked up): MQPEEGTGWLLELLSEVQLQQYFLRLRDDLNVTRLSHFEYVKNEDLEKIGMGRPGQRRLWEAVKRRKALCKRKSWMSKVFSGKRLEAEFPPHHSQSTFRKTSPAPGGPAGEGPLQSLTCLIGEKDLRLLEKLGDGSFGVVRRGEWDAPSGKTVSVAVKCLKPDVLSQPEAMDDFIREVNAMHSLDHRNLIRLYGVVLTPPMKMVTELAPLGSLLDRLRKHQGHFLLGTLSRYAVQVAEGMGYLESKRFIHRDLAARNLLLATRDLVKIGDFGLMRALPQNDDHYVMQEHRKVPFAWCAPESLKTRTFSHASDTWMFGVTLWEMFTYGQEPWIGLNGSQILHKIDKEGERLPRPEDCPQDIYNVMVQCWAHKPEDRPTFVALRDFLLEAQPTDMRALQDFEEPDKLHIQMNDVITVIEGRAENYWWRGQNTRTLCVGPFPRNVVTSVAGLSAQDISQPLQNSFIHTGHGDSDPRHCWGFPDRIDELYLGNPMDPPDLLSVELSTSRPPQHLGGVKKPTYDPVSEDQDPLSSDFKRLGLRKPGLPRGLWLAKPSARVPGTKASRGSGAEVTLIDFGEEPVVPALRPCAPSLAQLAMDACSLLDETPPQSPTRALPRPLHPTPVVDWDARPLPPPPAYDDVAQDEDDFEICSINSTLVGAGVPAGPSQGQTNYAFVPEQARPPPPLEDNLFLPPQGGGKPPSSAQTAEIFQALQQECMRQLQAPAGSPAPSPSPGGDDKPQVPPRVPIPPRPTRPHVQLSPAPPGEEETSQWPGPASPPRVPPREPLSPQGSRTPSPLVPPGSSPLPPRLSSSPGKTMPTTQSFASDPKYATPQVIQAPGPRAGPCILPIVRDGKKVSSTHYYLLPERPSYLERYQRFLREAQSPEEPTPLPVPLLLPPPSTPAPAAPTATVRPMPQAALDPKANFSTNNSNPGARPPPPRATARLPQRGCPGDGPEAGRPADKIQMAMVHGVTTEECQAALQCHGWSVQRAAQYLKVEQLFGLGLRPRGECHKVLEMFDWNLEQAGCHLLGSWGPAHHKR
# Sequence of Serine/threonine-protein kinase 38-like (Homo sapiens) (Q9Y2H1 2-464 limits assumed): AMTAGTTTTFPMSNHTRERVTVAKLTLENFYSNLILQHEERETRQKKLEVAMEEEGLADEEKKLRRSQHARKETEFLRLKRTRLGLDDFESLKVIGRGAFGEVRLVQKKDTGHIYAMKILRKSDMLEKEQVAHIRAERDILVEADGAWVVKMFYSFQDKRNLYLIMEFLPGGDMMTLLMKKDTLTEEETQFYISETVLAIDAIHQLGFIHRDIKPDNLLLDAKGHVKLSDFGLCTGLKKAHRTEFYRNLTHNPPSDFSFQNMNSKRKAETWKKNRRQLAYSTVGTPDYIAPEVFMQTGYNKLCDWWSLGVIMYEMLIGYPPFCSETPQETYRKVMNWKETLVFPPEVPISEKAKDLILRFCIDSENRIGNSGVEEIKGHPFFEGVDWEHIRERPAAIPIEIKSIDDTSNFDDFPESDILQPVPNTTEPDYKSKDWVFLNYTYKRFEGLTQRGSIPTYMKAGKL
compound,measurement,setting,value
CNC(=O)Nc1ccc(-c2nc(N3CC4CCC(C3)O4)c3cnn(C4CCC5(CC4)OCCO5)c3n2)cc1,% of control,[1],100%
C=CC(=O)Nc1cccc(C(=O)Nc2ccc(Nc3cc(-c4[nH]c(SC)nc4C)ccn3)cc2)c1,% of control,[2]; at 1 µM,74%
same,% of control,[2]; at 5 µM,31%
COCC(=O)NC/C=C/c1ccc2ncnc(Nc3ccc(Oc4ccc(C)nc4)c(C)c3)c2c1 [CP-724714],% of control,[3],3%
same,% of control,Ephrin type-A receptor 4,98%
C=CC(=O)Nc1cc(-n2c(=O)ccc3cnc4ccc(-c5ccc(NS(C)(=O)=O)cc5)cc4c32)ccc1C,% of control,[4]; at 1 µM,5.6%
same,% of control,[4]; at 10 µM,3.9%
COc1cc(N(C)c2ccnc3ccc(C(F)(F)F)cc23)cc(OC)c1OC,% binding,[5],100%
O[C@H]1CC[C@H](Nc2ncc3nc(Nc4c(F)cc(F)cc4F)n([C@H]4CCOC4)c3n2)CC1,% of control,[6],95%
N#Cc1cccc(-c2c[nH]c3ncnc(N4CCOCC4)c23)c1,% of control,Activated CDC42 kinase 1,98%
